# Measured values reported in US11554171B2, “Compounds and methods for the targeted degradation of bromodomain-containing proteins” (Arvinas Operations, Inc., priority 2015, dated 2023).
# Experiments:
# SU-DHL-6 xenografts = test: In vivo SU-DHL-6 xenografts efficacy; details: CB17 SCID mice
# Protocol: In vivo SU-DHL-6 Xenografts Efficacy
# The 4-5 weeks old male CB17 SCID mice were implanted subcutaneously with 5 million SU-DH-L6 GCB-DLBCL cells (in 200 ul volume of 3:1 matrigel:PBS). After 14 days, mice bearing 180-200 mm^3 tumors were randomized into three groups with ten mice in each group while ensuring identical (±5 mm^3) mean tumor volume in each group. […] Tumor volume was monitored twice per week using calipers and body weights were determined daily during the course of the study.
# 22RV-1 tumor xenograft = test: In vivo 22Rv1 xenografts efficacy; set-up: species or system mice; details: 14 day
# Protocol: (§1) Mice were housed in pathogen-free animal facilities at New England Life Sciences (NELS, New Haven, Conn.). All experiments were conducted under an IACUC protocol that was approved by the NELS IACUC committee. Male Nu/Nu mice and CB17 SCID mice were obtained at 4-5 weeks age from Charles River Laboratories and implanted subcutaneously with 5×10^6 22Rv1 cells or 5×10^6 VCaP cells in Matrigel (Corning Life Sciences). After 10-14 days, mice bearing >200 mm^3 tumors were randomized into indicated number of groups with ten mice in each group while ensuring identical (±5 mm^3) mean tumor volume in each group. Dosing was carried out through the indicated route and with the indicated schedule for each drug for up to three weeks, depending on the experiment. Mice were sacrificed eight hours after the final dose. Blood was collected, processed to plasma, and flash frozen for PK analysis. Tissues were harvested and flash frozen for further analysis. All PK analysis was carried out at Drumetix Laboratories (Greensboro, N.C.). 2 out of 10 animals in each study arm were randomly excluded in pharmacodynamic analysis, for greater technical ease of running a 20-well protein gel. For PSA ELISA, only samples with at least 25 uL plasma remaining after PK analysis were utilized using the Cell Signaling PathScan® Total PSA/KLK3 Sandwich ELISA Kit #14119 following the manufacturer's protocol. […]
# c-myc in 22RV-1 cells = test: Human c-myc ELISA assay; format: cell-based; details: for Emax / DC50: Homo sapiens; for Emax: 22Rv1, 18 h, read-out: Degradation of BRD4: Maximum inhibition (%) c-Myc ELISA in 22RV1 cells; for DC50: 22Rv1, read-out: Degradation of BRD4: DC50 (uM) c-Myc ELISA in 22RV1 cells
# How it was run: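 c-myc levels measured by ELISA in RIPA lysates of 22RV-1 cells, calibrated with a 333-0 pg/ml standard curve. Lysates came from cells exposed for 18 h to an 8-point, 1:3 dose series starting at 300 nM or 1 μM final in 0.1% DMSO. Suppression potency given as DC50.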
# BRD2 = target: T1, BRD2 (Homo sapiens, UniProt P25440); test: Immunoblotting, BRD2 degradation; format: cell-based; details: 22RV-1, VCaP, and LnCaP95 cells (FIG. 1)
# T1 construct: endogenous in cells; host or cells: 22Rv1, VCaP, LnCaP95
# T1 sequence (P25440 whole entry): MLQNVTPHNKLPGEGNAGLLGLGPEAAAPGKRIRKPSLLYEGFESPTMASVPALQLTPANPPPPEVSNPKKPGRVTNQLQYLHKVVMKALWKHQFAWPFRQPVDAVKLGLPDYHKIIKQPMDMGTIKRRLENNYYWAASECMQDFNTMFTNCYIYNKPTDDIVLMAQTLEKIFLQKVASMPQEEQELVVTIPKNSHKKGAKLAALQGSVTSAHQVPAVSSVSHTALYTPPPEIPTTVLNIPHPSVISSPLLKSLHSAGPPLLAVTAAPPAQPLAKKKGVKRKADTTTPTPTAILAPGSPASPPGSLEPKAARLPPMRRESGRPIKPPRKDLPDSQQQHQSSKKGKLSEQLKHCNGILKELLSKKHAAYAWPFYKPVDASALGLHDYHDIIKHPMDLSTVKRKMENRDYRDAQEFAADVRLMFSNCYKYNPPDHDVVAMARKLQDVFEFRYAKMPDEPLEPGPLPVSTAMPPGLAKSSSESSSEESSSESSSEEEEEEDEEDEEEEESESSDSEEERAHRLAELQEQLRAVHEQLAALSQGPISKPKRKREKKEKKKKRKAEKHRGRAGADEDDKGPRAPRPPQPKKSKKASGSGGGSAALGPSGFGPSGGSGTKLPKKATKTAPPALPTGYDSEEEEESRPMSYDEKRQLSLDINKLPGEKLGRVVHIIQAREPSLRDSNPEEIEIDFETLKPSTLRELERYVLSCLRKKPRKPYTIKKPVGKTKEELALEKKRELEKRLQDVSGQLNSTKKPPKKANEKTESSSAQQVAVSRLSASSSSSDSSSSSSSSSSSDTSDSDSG
# Excerpt: (§2) 22Rv1 and VCaP cell lines were purchased from ATCC. LnCap95 cells were a generous gift from Dr. Alan Meeker at The Johns Hopkins University School of Medicine. BRD2 (#5848), BRD4 (#13440), PARP (#9532), c-Myc (#5605) antibodies were purchased from cell signaling. BRD3 (sc-81202) antibody was purchased from Santa Cruz Biotech. Antibodies used for immunohistochemistry were c-MYC (abcam #ab32072) and BRD4 (Bethyl Laboratories #a301-985a50). Actin and Tubulin antibodies were purchased from Sigma.
# (§3) Cells were lysed in RIPA buffer (Thermo Fisher Cat #89900) supplemented with protease inhibitors (Pierce™ Protease Inhibitor Tablets, EDTA-free Cat #88266). Lysates were centrifuged at 16,000×g and supernatants were used for SDS-PAGE. Western blotting was carried out following standard protocols.
# BRD3 = target: T2, BRD3 (Homo sapiens, UniProt Q15059); test: Immunoblotting, BRD3 degradation; format: cell-based; details: 22RV-1, VCaP, and LnCaP95 cells (FIG. 1)
# T2 construct: endogenous in cells; host or cells: 22Rv1, VCaP, LnCaP95
# T2 sequence (Q15059 whole entry): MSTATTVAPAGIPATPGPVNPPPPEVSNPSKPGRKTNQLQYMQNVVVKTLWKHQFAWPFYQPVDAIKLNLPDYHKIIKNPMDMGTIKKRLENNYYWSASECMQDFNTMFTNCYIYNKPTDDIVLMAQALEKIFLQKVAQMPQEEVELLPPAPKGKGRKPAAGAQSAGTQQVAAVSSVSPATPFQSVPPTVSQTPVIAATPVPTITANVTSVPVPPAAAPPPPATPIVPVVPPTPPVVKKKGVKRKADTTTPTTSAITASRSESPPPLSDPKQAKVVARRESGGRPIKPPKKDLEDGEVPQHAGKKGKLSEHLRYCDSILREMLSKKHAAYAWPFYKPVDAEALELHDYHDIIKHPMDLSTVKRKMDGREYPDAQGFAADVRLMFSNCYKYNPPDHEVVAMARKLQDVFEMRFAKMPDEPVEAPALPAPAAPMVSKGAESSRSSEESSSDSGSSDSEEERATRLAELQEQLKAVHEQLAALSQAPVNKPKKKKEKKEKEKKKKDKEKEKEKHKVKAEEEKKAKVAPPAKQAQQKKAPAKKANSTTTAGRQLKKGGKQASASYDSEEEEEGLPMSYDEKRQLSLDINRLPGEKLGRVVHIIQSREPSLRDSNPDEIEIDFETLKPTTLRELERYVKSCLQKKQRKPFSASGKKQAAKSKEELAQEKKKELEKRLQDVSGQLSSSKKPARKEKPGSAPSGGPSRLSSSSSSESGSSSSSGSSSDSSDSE
# Excerpt: as §2, §3
# 22RV-1 cells [1] = test: Cell proliferation assay (CellTiter-Glo); format: cell-based; details: FIG. 4
# Protocol: 22RV-1 cells are seeded at 5,000 cells/well at a volume of 75 μL/well in RPMI+10% FBS media in 96-well plates and grown overnight at 37 C. Cells are dosed with compounds at 4× concentration diluted in 0.4% DMSO; compounds are serially diluted 1:3 for 10-point dose curve. 25 ul of compounds is added to cells for a final concentration starting at 300 nM-0.3 nM in 0.1% DMSO and incubated for 72 hrs. In a separate plate, 100 ul of 5,000 cells/well are plated in 8 wells, 100 ul of CellTiter-Glo (CellTiter-Glo® Luminescent Cell Viability Assay, Promega #G7573) is added and incubated for 30 minutes, then read on luminometer to assess initial signal for cell growth. After 72 hrs, 100 ul of CellTiter-Glo is added and incubated for 30 minutes, then read on luminometer. Data is analyzed and plotted using GraphPad Prism software.
# 22RV-1 cells [2] = test: Apoptosis assay (Caspase-Glo 3/7); format: cell-based; details: FIG. 5
# Protocol: 22RV-1 cells are seeded at 5,000 cells/well at a volume of 75 μL/well in RPMI+10% FBS media in 96-well plates and grown overnight at 37 C. Cells are dosed with compounds at 4× concentration diluted in 0.4% DMSO; compounds are serially diluted 1:3 for 8-point dose curve. 25 ul of compounds is added to cells for a final concentration starting at 300 nM-0.3 nM in 0.1% DMSO and incubated for 48 hrs. After 48 hrs, 100 ul of Caspase-Glo® 3/7 (Promega Caspase-Glo 3/7 Assay #G8093 is added and incubated for 30 minutes, then read on luminometer. Data is analyzed and plotted using GraphPad Prism software.
# BRD4 [3] = target: T3, BRD4 (Homo sapiens, UniProt O60885); test: BRD4 degradation in 22RV-1 tumor xenograft study; format: in vivo; set-up: from tissue; host or cells: 22Rv1 tumour xenograft harvested from mice; details: 14-day 22RV-1 tumor xenograft study; dosed subcutaneously to mice at 10 mg/kg (qd) for 2 weeks (FIG. 6)
# Protocol: As a comparison, OTX-015 was also included (50 mg/kg, p.o., qd). Example 77 was dosed subcutaneously to mice at 10 mg/kg (qd) for 2 weeks.
# as §1, with “gel.” for “gel. For PSA ELISA, only samples with at least 25 uL plasma remaining after PK analysis were utilized using the Cell Signaling PathScan® Total PSA/KLK3 Sandwich ELISA Kit #14119 following the manufacturer's protocol.”
# BRD4 [4] = target: T3, BRD4; test: Immunoblotting, BRD4 degradation; format: cell-based; set-up: compounds which function to recruit endogenous proteins, e.g., BRd4, to E3 Ubiquitin Ligase for ubiquitination and degradation; endogenous in cells; host or cells: 22Rv1, VCaP, LnCaP95
# Excerpt: as §2, §3
compound,measurement,setting,value
"Cc1sc2c(c1C)C(c1ccc(Cl)cc1)=N[C@@H](CC(=O)Nc1ccc(O)cc1)c1nnc(C)n1-2 [OTX015, reference compound]",in vivo growth of SU-DHL-6 xenografts,SU-DHL-6 xenografts; daily po administration of 25MPK (FIG. 10),no effect
"Cc1sc2c(c1C)C(c1ccc(Cl)cc1)=N[C@@H](CC(=O)Nc1ccc(O)cc1)c1nnc(C)n1-2 [OTX-015, reference compound]","tumor response in 22RV-1 mice tumor xenograft model, comparator",22RV-1 tumor xenograft; OTX-015 as comparison (FIG. 7),tumor growth inhibition
"Cc1ncsc1-c1ccc([C@H](C)NC(=O)[C@@H]2C[C@@H](O)CN2C(=O)[C@@H](NC(=O)c2cc3cc(O[C@H]4C[C@@H](NC(=O)C[C@@H]5N=C(c6ccc(Cl)cc6)c6c(sc(C)c6C)-n6c(C)nnc65)C4)ccc3o2)C(C)(C)C)cc1 [Example 195, (2S,4R)-1-[(2S)-3,3-dimethyl-2-({5-[(1,3cis)-3-{2-[(9S)-7-(4-chlorophenyl)-4,5,13-trimethyl-3-thia-1,8,11,12-tetraazatricyclo[8.3.0.0^2,^6]trideca-2(6),4,7,10,12-pentaen-9-yl]acetamido}cyclobutoxy]-1-benzofuran-2-yl}formamido)butanoyl]-4-hydroxy-N-[(1S)-1-[4-(4-methyl-1,3-thiazol-5-yl)phenyl]ethyl]pyrrolidine-2-carboxamide]",Emax,c-myc in 22RV-1 cells,100%
same,DC50,c-myc in 22RV-1 cells,< 0.01 µM
same,in vivo growth of SU-DHL-6 xenografts,"SU-DHL-6 xenografts; 6MPK Q3D iv dosing, n=10 (FIG. 10)",tumor regression
"Cc1ncsc1-c1ccc([C@H](C)NC(=O)[C@@H]2C[C@@H](O)CN2C(=O)[C@@H](NC(=O)COCCCOCCNC(=O)C[C@@H]2N=C(c3ccc(Cl)cc3)c3c(sc(C)c3C)-n3c(C)nnc32)C(C)(C)C)cc1 [Example 77, (2S, 4R)-1-[(2S)-2-{2-[3-(2-{2-[(9S)-7-(4-chlorophenyl)-4,5,13-trimethyl-3-thia-1,8,11,12-tetraazatricyclo[8.3.0.0^2,^6]trideca-2(6),4,7,10,12-pentaen-9-yl]acetamido}ethoxy)propoxy]acetamido}-3,3-dimethylbutanoyl]-4-hydroxy-N-[(1S)-1-[4-(4-methyl-1,3-thiazol-5-yl)phenyl]ethyl]pyrrolidine-2-carboxamide]",suppression of cellular c-MYC levels measured by ELISA,c-myc in 22RV-1 cells; FIG. 3,suppression
same,Emax,c-myc in 22RV-1 cells,100%
same,DC50,c-myc in 22RV-1 cells,< 0.01 µM
same,degradation of BRD2,BRD2,degradation
same,degradation of BRD3,BRD3,degradation
same,proliferation inhibition of prostate cancer cell growth,22RV-1 cells [1],proliferation inhibition
same,caspase activation in prostate cancer cell lines,22RV-1 cells [2],caspase activation
same,tumor response in 22RV-1 mice tumor xenograft model,22RV-1 tumor xenograft; subcutaneous dosing (FIG. 7),tumor regression
same,degradation of BRD4 in tumor xenograft,BRD4 [3],degradation of BRD4
same,degradation of BRD4,"BRD4 [4]; 22RV-1, VCaP, and LnCaP95 cells (FIG. 1)",degradation
same,BRD4 degradation after pretreatment with an excess of VHL ligand ARV-056,BRD4 [4]; FIG. 2,blocked
same,BRD4 degradation in presence of proteasome inhibitor carfilzomib,BRD4 [4]; FIG. 2,blocked
"Cc1ncsc1-c1ccc([C@H](C)NC(=O)[C@@H]2C[C@@H](O)CN2C(=O)[C@@H](NC(=O)c2cc3cc(OCCCNC(=O)C[C@@H]4N=C(c5ccc(Cl)cc5)c5c(sc(C)c5C)-n5c(C)nnc54)ccc3o2)C(C)(C)C)cc1 [Example 170, (2S,4R)-1-[(2S)-2-{[5-(3-{2-[(9S)-7-(4-chlorophenyl)-4,5,13-trimethyl-3-thia-1,8,11,12-tetraazatricyclo[8.3.0.0^2,^6]trideca-2(6),4,7,10,12-pentaen-9-yl]acetamido}propoxy)-1-benzofuran-2-yl]formamido}-3,3-dimethylbutanoyl]-4-hydroxy-N-[(1S)-1-[4-(4-methyl-1,3-thiazol-5-yl)phenyl]ethyl]pyrrolidine-2-carboxamide]",Emax,c-myc in 22RV-1 cells,97%
same,DC50,c-myc in 22RV-1 cells,< 0.01 µM
